Like-named read-outs stand apart in the source and are kept apart here. Numbered stars: 1 amine (or outer) side, 2 acyl side, 3 side chain; on linkers, the order of the positions; unused ones are H or OH. Bridge positions count the residues as written; N and C are the ends. Square brackets hold non-standard residues; d marks the D form. Peptide text beside a SMILES is read from it. * marks the point of attachment. Acetyl(1-DOTA-4-piperidyl) = O=C(O)CN1CCN(CC(=O)O)CCN(CC(=O)N2CCC(CC(=O)*)CC2)CCN(CC(=O)O)CC1; X9 = C=C(N([C@@H](Cc1ccc(Cl)cc1)C(=O)[*:2])[*:1])C(C)(C)NC(=O)[C@@H](NC(C)=O)[C@@H](C)O; DOTA = O=C(O)CN1CCN(CC(=O)O)CCN(CC(=O)*)CCN(CC(=O)O)CC1; Trp(5-Cl) = N[C@@H](Cc1c[nH]c2ccc(Cl)cc12)C(=O)O; Phe(4-Cl) = N[C@@H](Cc1ccc(Cl)cc1)C(=O)O; X1 = O=C(CC1CCN([*:1])CC1)[*:2]; Cit = NC(=O)NCCC[C@H](N)C(=O)O; Tle = CC(C)(C)[C@H](N)C(=O)O; αMeP = C[C@@]1(C(=O)O)CCCN1; Hexanoyl = CCCCCC(=O)*; Aib = CC(C)(N)C(=O)O

The target of test [1] is T1, PSMA-expressing C4-2 cells (Homo sapiens, UniProt Q04609).
T1 construct: PSMA-expressing C4-2 cells (ATCC, Cat. No. CRL-3314) were cultured in RPMI-1640; host or cells: C4-2 cells
T1 sequence (Q04609 whole entry): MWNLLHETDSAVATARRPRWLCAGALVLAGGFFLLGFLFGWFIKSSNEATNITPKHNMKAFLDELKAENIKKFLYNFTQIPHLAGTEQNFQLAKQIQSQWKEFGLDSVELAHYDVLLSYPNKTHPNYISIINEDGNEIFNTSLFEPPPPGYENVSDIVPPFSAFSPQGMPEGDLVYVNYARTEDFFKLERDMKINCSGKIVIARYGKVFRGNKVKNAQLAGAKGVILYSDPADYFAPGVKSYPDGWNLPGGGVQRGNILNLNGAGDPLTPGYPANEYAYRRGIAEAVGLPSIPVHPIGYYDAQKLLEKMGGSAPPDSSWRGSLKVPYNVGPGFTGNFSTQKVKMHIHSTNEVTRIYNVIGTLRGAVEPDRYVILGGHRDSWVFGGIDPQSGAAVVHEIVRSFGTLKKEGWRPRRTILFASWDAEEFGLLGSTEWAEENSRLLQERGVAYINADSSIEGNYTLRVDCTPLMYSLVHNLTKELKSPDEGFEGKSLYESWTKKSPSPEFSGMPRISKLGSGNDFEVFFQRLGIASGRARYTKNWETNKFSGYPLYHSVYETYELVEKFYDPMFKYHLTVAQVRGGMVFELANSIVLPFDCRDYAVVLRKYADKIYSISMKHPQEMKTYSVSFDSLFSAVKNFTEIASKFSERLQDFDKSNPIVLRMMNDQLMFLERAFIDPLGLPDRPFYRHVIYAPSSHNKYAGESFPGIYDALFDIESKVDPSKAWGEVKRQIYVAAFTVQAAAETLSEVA
In words: FACS binding assay (competition with 50 nM PSM-0183). As to conditions: read-out: pIC50 [C4-2] CAT (converted). The method in brief: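 Competition format: fluorescent tracer PSM-0183 (50 nM) displaced from PSMA on C4-2 cells by a test compound titration over 1 h at 4 °C. Bound tracer was quantified as flow-cytometric AF488 median fluorescence after washing. Four-parameter logistic fits of MFI data gave IC50 and pIC50.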
Background: A flow cytometer gives signals particle by particle.

In test [2] the target is T2, Fc-fusion protein of human PSMA (hPSMA-Fc) (Homo sapiens, UniProt Q04609).
T2 construct: purchased Acro Biosystems PSA-H5264
T2 sequence (Q04609 44-750 limits assumed): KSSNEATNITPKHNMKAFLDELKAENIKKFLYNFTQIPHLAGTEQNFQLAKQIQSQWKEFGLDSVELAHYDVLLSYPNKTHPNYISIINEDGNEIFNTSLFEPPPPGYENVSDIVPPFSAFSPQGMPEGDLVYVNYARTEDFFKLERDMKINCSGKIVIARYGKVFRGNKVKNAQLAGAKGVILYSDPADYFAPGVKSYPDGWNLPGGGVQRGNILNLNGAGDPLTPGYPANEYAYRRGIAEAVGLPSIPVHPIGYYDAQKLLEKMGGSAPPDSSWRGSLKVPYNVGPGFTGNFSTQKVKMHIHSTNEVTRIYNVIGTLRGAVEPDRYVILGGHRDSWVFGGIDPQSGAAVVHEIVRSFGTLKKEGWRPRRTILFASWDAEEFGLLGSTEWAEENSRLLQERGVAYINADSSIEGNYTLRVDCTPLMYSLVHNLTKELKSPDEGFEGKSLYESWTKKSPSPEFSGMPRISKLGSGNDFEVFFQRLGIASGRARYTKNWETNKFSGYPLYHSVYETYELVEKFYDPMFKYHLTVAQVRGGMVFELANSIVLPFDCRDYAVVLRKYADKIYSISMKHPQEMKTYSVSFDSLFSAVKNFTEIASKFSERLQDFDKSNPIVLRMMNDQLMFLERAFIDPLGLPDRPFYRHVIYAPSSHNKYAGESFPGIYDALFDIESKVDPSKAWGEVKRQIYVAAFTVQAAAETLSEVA
In words: Surface plasmon resonance assay (Biacore T200, single cycle kinetic). In kind it is binding. The conditions noted are these: hPSMA-Fc, 25° C., read-out: pKD CAT (converted). The method in brief: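 KD, expressed as pKD, came from 1:1 Langmuir fits of reference- and buffer-blank-subtracted SPR data. The runs were single-cycle kinetics at 25° C in HBST/0.1% DMSO over human PSMA-Fc, captured to ~1000 RU on a peptide-coated CM5 surface and regenerated with 10 mM glycine pH 1.5.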
For orientation: In SPR one partner is held on a chip, and binding of the other changes the refractive index at the surface.

Where [3] appears, read: FACS binding, C4-2 cells, competition with 50 nM PSM-0183, category.
Where [4] appears, read: SPR, single cycle kinetic, category.
Setting [5] is: pIC50 category of FACS binding, C4-2 cells.
Setting [6] is: pKD category for PSMA SPR activity assay.

Regarding `CC(=O)N[C@H](C(=O)NC(C)(C)C(=O)N[C@@H](Cc1ccccc1)C(=O)N[C@H]1CSSC[C@@H](C(=O)N[C@H](C(=O)N[C@H](C(=O)N[C@@H](CC(=O)O)C(N)=O)[C@@H](C)O)C(C)(C)C)NC(=O)[C@H](CC(N)=O)NC(=O)[C@H](C)NC(=O)[C@H](CCC(=O)O)NC(=O)[C@H](CCCCN)NC1=O)[C@@H](C)O` [PSM-0363, Ac-Thr-Aib-Phe-[Cys-Lys-Glu-Ala-Asn-Cys]-Tle-Thr-Asp-NH2] (Ac-T[Aib]FCKEANC[Tle]TD-NH2; disulfide 4-9), in test [1] (FACS binding, PSMA-expressing C4-2 cells, pIC50 category), the IC50 was 200 to 1260 nM. Further, the Kd in test [2] (PSMA SPR assay, pKD category) is below 12.6 nM.

In the case of `CC(=O)NC(C)(C)C(=O)N[C@@H](Cc1ccccc1)C(=O)N[C@H]1CSSC[C@@H](C(=O)N[C@H](C(=O)N[C@H](C(N)=O)[C@@H](C)O)C(C)(C)C)NC(=O)[C@H](CC(N)=O)NC(=O)C(C)(C)NC(=O)[C@H](CCCNC(=N)N)NC(=O)[C@H](CCCCN)NC1=O` [PSM-0228, Ac-Aib-Phe-[Cys-Lys-Arg-Aib-Asn-Cys]-Tle-Thr-NH2] (Ac-[Aib]FCKR[Aib]NC[Tle]T-NH2; disulfide 3-8), the IC50 in test [1] (setting [3]) is below 200 nM. Further, in test [2] (setting [4]), the Kd was below 12.6 nM.

Take `C=C(N[C@@H](Cc1ccc(Cl)cc1)C(=O)N[C@H]1CSSC[C@@H](C(=O)N[C@H](C(=O)N[C@H](C(N)=O)[C@@H](C)O)C(C)(C)C)NC(=O)[C@H](CCCNC(=N)N)NC(=O)C(C)(C)NC(=O)[C@H](CCCNC(N)=O)NC(=O)[C@H](CCCCN)NC1=O)C(C)(C)NC(=O)[C@@H](NC(C)=O)[C@@H](C)O` [PSM-0240, Ac-Thr-Aib-Pcf-[Cys-Lys-Cit-Aib-Arg-Cys]-Tle-Thr-NH2] (H-[X9]CK[Cit][Aib]RC[Tle]T-NH2; disulfide 2-7): in test [1] (setting [3]), the IC50 is below 200 nM. The Kd in test [2] (setting [4]) was below 12.6 nM.

As for `C[C@@H](O)[C@H](NC(=O)[C@@H](NC(=O)[C@@H]1CSSC[C@H](NC(=O)[C@H](Cc2c[nH]c3ccc(Cl)cc23)NC(=O)C(C)(C)NC(=O)[C@@H](NC(=O)CC2CCN(C(=O)CN3CCN(CC(=O)O)CCN(CC(=O)O)CCN(CC(=O)O)CC3)CC2)[C@@H](C)O)C(=O)N[C@@H](CCCCN)C(=O)N[C@@H](CCCNC(N)=O)C(=O)NC(C)(C)C(=O)N[C@@H](CC(N)=O)C(=O)N1)C(C)(C)C)C(N)=O` [PSM-0406, DOTA-Cmp-Thr-Aib-5Clw-[Cys-Lys-Cit-Aib-Asn-Cys]-Tle-Thr-NH2] ({DOTA}-[X1]T[Aib][Trp(5-Cl)]CK[Cit][Aib]NC[Tle]T-NH2; disulfide 5-10), in test [1] (setting [5]), the IC50 was 1260 to 3160 nM. For the same molecule, the Kd in test [2] (setting [6]) is above 501 nM.

As to `CC(=O)N[C@H](C(=O)NC(C)(C)C(=O)N[C@@H](Cc1ccccc1)C(=O)N[C@H]1CSSC[C@@H](C(=O)N[C@H](C(=O)N[C@H](C(N)=O)[C@@H](C)O)C(C)(C)C)NC(=O)[C@H](CC(N)=O)NC(=O)[C@]2(C)CCCN2C(=O)[C@H](CCCNC(=N)N)NC(=O)[C@H](CCCCN)NC1=O)[C@@H](C)O` [PSM-0233, Ac-Thr-Aib-Phe-[Cys-Lys-Arg-Pam-Asn-Cys]-Tle-Thr-NHZ] (Ac-T[Aib]FCKR[αMeP]NC[Tle]T-NH2; disulfide 4-9), in test [1] (setting [3]), the IC50 was below 200 nM. In addition, the Kd in test [2] (setting [4]) was below 12.6 nM.

Turning to `CCCCCC(=O)N[C@H](C(=O)NC(C)(C)C(=O)N[C@@H](Cc1ccc(Cl)cc1)C(=O)N[C@H]1CSSC[C@@H](C(=O)N[C@H](C(=O)N[C@H](C(=O)N[C@H](CCCCNC(=O)CC2CCN(C(=O)CN3CCN(CC(=O)O)CCN(CC(=O)O)CCN(CC(=O)O)CC3)CC2)C(N)=O)[C@@H](C)O)C(C)(C)C)NC(=O)[C@H](CC(N)=O)NC(=O)C(C)(C)NC(=O)[C@H](CCCNC(=N)N)NC(=O)[C@H](CCCCN)NC1=O)[C@@H](C)O` [PSM-0400, Hex-Thr-Aib-Pcf-[Cys-Lys-Arg-Aib-Asn-Cys]-Tle-Thr-lys(DOTA-Cmp)-NH2] (Hexanoyl-T[Aib][Phe(4-Cl)]CKR[Aib]NC[Tle]T[dK](Acetyl(1-DOTA-4-piperidyl))-NH2; disulfide 4-9), the IC50 in test [1] (setting [5]) was below 200 nM. Also, in test [2] (setting [6]), the Kd is below 12.6 nM.

The record behind these values is patent US20260083865A1, “PROSTATE SPECIFIC MEMBRANE ANTIGEN (PSMA) LIGANDS AND USE THEREOF” (priority 2022, published 2026).
